The values that follow come from patent US11524966B1 (Valo Early Discovery, Inc., priority 2017, dated 2022).

SMILES strings stand for the structures.

For one test, the target named is T1, USP28 (USP28-5(1-1077)-TEV-6*His; LifeSensors) (Homo sapiens, UniProt Q96RU2).
T1 construct: construct USP28 (USP28-5(1-1077)-TEV-6*His; LifeSensors); TEV cleavage site (C); 6xHis (C); purchased LifeSensors
T1 sequence (Q96RU2 1-1077): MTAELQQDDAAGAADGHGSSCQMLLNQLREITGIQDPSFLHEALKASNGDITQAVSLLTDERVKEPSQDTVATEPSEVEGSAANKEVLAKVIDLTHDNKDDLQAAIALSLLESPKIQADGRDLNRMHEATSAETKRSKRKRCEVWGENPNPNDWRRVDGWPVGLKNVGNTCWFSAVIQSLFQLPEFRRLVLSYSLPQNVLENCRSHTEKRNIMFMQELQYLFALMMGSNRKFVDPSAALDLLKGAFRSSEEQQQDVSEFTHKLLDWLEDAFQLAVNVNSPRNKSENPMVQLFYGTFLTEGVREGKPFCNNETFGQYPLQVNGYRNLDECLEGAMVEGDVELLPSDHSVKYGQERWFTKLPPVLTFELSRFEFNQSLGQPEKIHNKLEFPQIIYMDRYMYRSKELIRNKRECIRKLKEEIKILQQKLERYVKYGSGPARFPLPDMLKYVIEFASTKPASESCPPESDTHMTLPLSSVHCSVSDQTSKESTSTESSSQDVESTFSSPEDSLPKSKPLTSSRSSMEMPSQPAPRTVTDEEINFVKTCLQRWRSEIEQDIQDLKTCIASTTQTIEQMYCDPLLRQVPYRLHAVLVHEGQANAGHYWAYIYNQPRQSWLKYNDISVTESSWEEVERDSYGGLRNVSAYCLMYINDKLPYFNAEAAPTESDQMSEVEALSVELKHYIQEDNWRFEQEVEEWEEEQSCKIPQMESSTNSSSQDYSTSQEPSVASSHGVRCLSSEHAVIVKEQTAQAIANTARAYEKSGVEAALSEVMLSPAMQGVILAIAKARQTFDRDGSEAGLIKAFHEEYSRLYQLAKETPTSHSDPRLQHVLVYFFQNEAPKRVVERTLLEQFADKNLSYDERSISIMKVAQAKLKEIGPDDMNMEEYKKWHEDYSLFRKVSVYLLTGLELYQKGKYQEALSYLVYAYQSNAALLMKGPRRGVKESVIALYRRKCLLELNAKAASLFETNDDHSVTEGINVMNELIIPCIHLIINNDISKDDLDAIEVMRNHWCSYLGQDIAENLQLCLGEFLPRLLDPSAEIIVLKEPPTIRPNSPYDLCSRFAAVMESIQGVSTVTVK
As to the kind of experiment: Ubiquitin-Rhodamine 110 Assay for USP28 Activity, Example A-1(b). It counts as biochemical. The conditions noted are these: Ubiquitin-Rhodamine 110 assay, Example A-1(b). An outline of the steps:
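Single-point screening used 10 μM compound with 90 min room-temperature incubation; follow-up dose-responses (25 μM top, 3-fold) used 75 pM USP28 1-1077 construct, 30 min compound preincubation, 25 nM Ub-Rh110, 20 min reaction, citric acid quench. Rh110 fluorescence normalised to no-enzyme and DMSO controls; IC50 from 4-parameter logistic fit.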
`Cc1cnc2c(N)c(C(=O)N[C@H]3COc4cc(N5CC6CC(C5)N6)cc(F)c4C3)sc2n1` [Example 10-8, N-((3R)-7-(3,6-diazabicyclo[3.1.1]heptan-3-yl)-5-fluorochroman-3-yl)-7-amino-3-methylthieno[2,3-b]pyrazine-6-carboxamide]: the “USP28 A-1(b) IC50 range” value is reported as “+++ (0.05-0.2 μM)”.

In the case of `CCn1ccc2cc(C(=O)N[C@H]3CCc4cc(N5CC6CCC(C5)N6)ccc4C3)cnc21` (single isomer, unassigned) [Example 11-9], the “USP28 A-1(b) IC50 range” value is “+ (>2 μM)”.

As to `Cc1cc(C(F)(F)F)c2c(N)c(C(=O)N[C@H]3COc4cc(N5CCNCC5)cc(F)c4C3)sc2n1` [Example 10-14, (R)-3-amino-N-(5-fluoro-7-(piperazin-1-yl)chroman-3-yl)-6-methyl-4-(trifluoromethyl)thieno[2,3-b]pyridine-2-carboxamide], the “USP28 A-1(b) IC50 range” value is “++ (0.2-2 μM)”.

Turning to `Cc1ccc2c(N)c(C(=O)N[C@H]3COc4cc(O[C@@H]5COC6(CNC6)C5)ccc4C3)sc2n1` (single isomer, unassigned) [Example 9-1], the “USP28 A-1(b) IC50 range” value is “+++ (0.05-0.2 μM)”.

For the compound `Cc1ccc2c(N)c(C(=O)N[C@@H]3CCc4cc(N5CCN[C@@H](CO)C5)ccc4C3)sc2n1` (single isomer, unassigned) [Example 7-11], the “USP28 A-1(b) IC50 range” value was “++ (0.2-2 μM)”.

`CCn1ccc2cc(C(=O)N[C@H]3CCc4cc(N5CC6CCC(C5)N6)ccc4C3)nnc21` (single isomer, unassigned) [Example 11-24]: the “USP28 A-1(b) IC50 range” value is given as “+ (>2 μM)”.

`Cc1cnc2c(N)c(C(=O)N[C@H]3COc4cc(N5CC6CNCC(C5)O6)cc(F)c4C3)sc2n1` [Example 10-12, N-((3R)-7-(9-oxa-3,7-diazabicyclo[3.3.1]nonan-3-yl)-5-fluorochroman-3-yl)-7-amino-3-methylthieno[2,3-b]pyrazine-6-carboxamide]: the “USP28 A-1(b) IC50 range” value was “++++ (0.001-0.05 μM)”.

Consider `Cc1cc(C)c2c(N)c(C(=O)N[C@H]3COc4cc(N5CCNCC5)cc(F)c4C3)sc2n1` [Example 10-9, (R)-3-amino-N-(5-fluoro-7-(piperazin-1-yl)chroman-3-yl)-4,6-dimethylthieno[2,3-b]pyridine-2-carboxamide], for which the “USP28 A-1(b) IC50 range” value is “+++ (0.05-0.2 μM)”.

Regarding `Cc1ccc2c(N)c(C(=O)N[C@@H]3CCc4cc(N5CC6CCC(C5)N6)ccc4C3)sc2n1` [Example 11-2, N-((2R)-6-(3,8-diazabicyclo[3.2.1]octan-3-yl)-1,2,3,4-tetrahydronaphthalen-2-yl)-3-amino-6-methylthieno[2,3-b]pyridine-2-carboxamide], the “USP28 A-1(b) IC50 range” value is “++ (0.2-2 μM)”.

On to `Cc1nc2sc(C(=O)N[C@@H]3CCc4cc(N5CC6CCC(C5)N6)ccc4C3)c(N)c2cc1F` (single isomer, unassigned) [Example 11-4], for which the “USP28 A-1(b) IC50 range” value is “+++ (0.05-0.2 μM)”.

As for `COc1ccc2c(N)c(C(=O)N[C@@H]3CCc4cc(N5CC6CCC(C5)N6)ccc4C3)sc2n1` (single isomer, unassigned) [Example 11-6], the “USP28 A-1(b) IC50 range” value was “+ (>2 μM)”.

Consider `Cc1cnc2c(N)c(C(=O)N[C@H]3CCc4cc(N5CC6CCC(C5)N6)ccc4C3)sc2n1` (single isomer, unassigned) [Example 11-7], for which the “USP28 A-1(b) IC50 range” value is listed as “++ (0.2-2 μM)”.

In the case of `Cc1cnc2c(N)c(C(=O)N[C@H]3CCc4cc(N5CCNC[C@H](O)C5)ccc4C3)sc2n1` (single isomer, unassigned) [Example 7-6], the “USP28 A-1(b) IC50 range” value was “++ (0.2-2 μM)”.

On to `CCn1ccc2cc(C(=O)N[C@@H]3CCc4cc(N5CC6CCC(C5)N6)ccc4C3)nnc21` (single isomer, unassigned) [Example 11-23], for which the “USP28 A-1(b) IC50 range” value is “+ (>2 μM)”.

For `Cc1cnc2c(N)c(C(=O)N[C@@H]3CCc4cc(N5CCNC[C@H](O)C5)ccc4C3)sc2n1` (single isomer, unassigned) [Example 7-7], the “USP28 A-1(b) IC50 range” value is on record as “+ (>2 μM)”.

Turning to `Cc1ccc2c(N)c(C(=O)N[C@@H]3CCc4cc(N5CCN[C@H](CO)C5)ccc4C3)sc2n1` (single isomer, unassigned) [Example 7-10], the “USP28 A-1(b) IC50 range” value was “++ (0.2-2 μM)”.

For the compound `Cc1nc2sc(C(=O)N[C@H]3CCc4cc(N5CC6CCC(C5)N6)ccc4C3)c(N)c2cc1F` (single isomer, unassigned) [Example 11-3], the “USP28 A-1(b) IC50 range” value is “++ (0.2-2 μM)”.

Take `Cc1cnc2c(N)c(C(=O)N[C@H]3CCc4cc(N5CC6CCC(C5)N6)cc(F)c4C3)sc2n1` (single isomer, unassigned) [Example 11-13]: the “USP28 A-1(b) IC50 range” value is “+ (>2 μM)”.

The test is the same for the next values; noted with them: Ubiquitin-Rhodamine 110 assay, format Example A-1(b).
With `Cc1ccc2c(N)c(C(=O)N[C@H]3CCc4cc(N5CCNCC5)cnc4C3)sc2n1` (single isomer, unassigned) [Example 15-2], the “USP28 A-1(b) IC50 range” value is given as “+ (>2 μM)”.

With `Cc1ccc2c(N)c(C(=O)N[C@@H]3CCc4cc(N5CCNCC5)c(F)cc4C3)sc2n1` (single isomer, unassigned) [Example 21-7], the “USP28 A-1(b) IC50 range” value was “+++ (0.05-0.2 μM)”.

Consider `Cc1ccc2c(N)c(C(=O)N[C@@H]3COc4c(F)c(N5CC6CCC(C5)N6)cc(F)c4C3)sc2n1` (single isomer, unassigned) [Example 13-2], for which the “USP28 A-1(b) IC50 range” value is on record as “+ (>2 μM)”.

Take `Cc1ccc2c(N)c(C(=O)N[C@@H]3CCc4c(ccc(N5CCNCC5)c4F)C3)sc2n1` (single isomer, unassigned) [Example 21-5]: the “USP28 A-1(b) IC50 range” value is on record as “++++ (0.001-0.05 μM)”.

With `Cc1ccc2c(N)c(C(=O)N[C@H]3CCc4cc(N5CC6CCC(C5)N6)c(F)cc4C3)sc2n1` (single isomer, unassigned) [Example 21-4], the “USP28 A-1(b) IC50 range” value is “++ (0.2-2 μM)”.

For the compound `Cc1ccc2c(N)c(C(=O)N[C@H]3COc4cc(N5CCNCC5)ncc4C3)sc2n1` [Example 16, (R)-3-Amino-6-methyl-N-(7-(piperazin-1-yl)-3,4-dihydro-2H-pyrano[3,2-c]pyridin-3-yl)thieno[2,3-b]pyridine-2-carboxamide], the “USP28 A-1(b) IC50 range” value is recorded as “++ (0.2-2 μM)”.

For `Cc1ccc2c(N)c(C(=O)N[C@H]3COc4cc(N5CCNCC5)c(Cl)cc4C3)sc2n1` [Example 13-5, (R)-3-amino-N-(6-chloro-7-(piperazin-1-yl)chroman-3-yl)-6-methylthieno[2,3-b]pyridine-2-carboxamide], the “USP28 A-1(b) IC50 range” value was “+ (>2 μM)”.

`Cc1ccc2c(N)c(C(=O)N[C@H]3CCc4c(ccc(N5CCNCC5)c4F)C3)sc2n1` (single isomer, unassigned) [Example 21-6]: the “USP28 A-1(b) IC50 range” value is “++ (0.2-2 μM)”.

Consider `Cc1ccc2c(N)c(C(=O)N[C@H]3CCc4c(ccc(N5CC6CCC(C5)N6)c4F)C3)sc2n1` (single isomer, unassigned) [Example 21-2], for which the “USP28 A-1(b) IC50 range” value is listed as “++ (0.2-2 μM)”.

On to `Cc1ccc2c(N)c(C(=O)N[C@@H]3CCc4cc(N5C6CNCC5C6)ccc4C3)sc2n1` (single isomer, unassigned) [Example 11-36], for which the “USP28 A-1(b) IC50 range” value is reported as “++ (0.2-2 μM)”.

On to `Cc1ccc2c(N)c(C(=O)N[C@@H]3COc4cc(N5CC6CCC(C5)N6)c(F)c(F)c4C3)sc2n1` [Example 13-4, N-((3S)-7-(3,8-diazabicyclo[3.2.1]octan-3-yl)-5,6-difluorochroman-3-yl)-3-amino-6-methylthieno[2,3-b]pyridine-2-carboxamide], for which the “USP28 A-1(b) IC50 range” value is on record as “++++ (0.001-0.05 μM)”.

`Cc1nc2sc(C(=O)N[C@H]3CCc4cc(N5CC6CCC(C5)N6)ccc4C3)c(N)c2s1` (single isomer, unassigned) [Example 12-1]: the “USP28 A-1(b) IC50 range” value is “+ (>2 μM)”.

As for `Cc1ccc2c(N)c(C(=O)N[C@@H]3CCc4c(ccc(N5CC6CCC(C5)N6)c4F)C3)sc2n1` (single isomer, unassigned) [Example 21-1], the “USP28 A-1(b) IC50 range” value was “++ (0.2-2 μM)”.

Turning to `Cc1ccc2c(N)c(C(=O)N[C@@H]3CCc4c(F)c(N5CCNCC5)cc(F)c4C3)sc2n1` (single isomer, unassigned) [Example 22-2], the “USP28 A-1(b) IC50 range” value was “+++ (0.05-0.2 μM)”.
